A melting point compilation (Tetko et al.; mined from patent text by program, amines drawn as free bases though some values may be those of a salt)

Row | Compound | melting point
1 | CC(C)S(=O)(=O)c1cc(C#N)c(N)c(OCCc2ccccn2)c1 | 122 to 123 °C
2 | COc1ccc(-c2nc(CCO)sc2-c2ccc(OC)cc2)cc1 | 101 to 104 °C
3 | O=C1COc2ccc(C3=Cc4cc(F)ccc4SC3c3ccc(F)cc3)cc2N1 (configuration not stated) | 191 to 192 °C
4 | CSC1C(=O)Nc2ccc(Oc3ccc(Cl)cc3)cc21 (configuration not stated) | 166 to 169 °C
5 | Cc1cc(=O)n(Cc2ccccc2)c2cc(OCc3nnn[nH]3)cc(OCc3nnn[nH]3)c12 | 246 to 249 °C
6 | C1CN2CCN3CCN(CCN1)P23 | 109 to 111 °C
7 | CNC(=S)NN=C(CCCOC(=O)Nc1ccccc1)c1ccccc1 | 155 to 157 °C
8 | Cc1ccccc1-c1nc2c3ccccc3ccn2c1N | 151 to 153 °C
9 | Nc1nc(SC2C=CCCC2)c2ncn(C3C=CC(CO)C3)c2n1 (configuration not stated) | 138 to 140 °C
10 | COC(=O)C(Oc1ccc(OCc2ccccc2)cc1)c1ccc(Oc2ccc(Cl)cc2)cc1 (configuration not stated) | 88 to 90 °C
11 | NC(=O)c1ccc(Sc2ccc(Cl)cc2)c(Cl)c1 | 176 to 177 °C
12 | COCOc1ccccc1-c1cc(-c2cccc(CN=[N+]=[N-])c2)c(C#N)c(N)n1 | 99 to 100 °C
13 | C=CCc1c(C)cc(C)c(C(C)O)c1-c1ccc(F)cc1 (configuration not stated) | 92 °C
14 | COC1(c2cncnc2SC)c2ccccc2CC1(C)C (configuration not stated) | 130 to 132 °C
15 | O=C1CN2Cc3cc(OCCCCCCn4ccnc4)ccc3N=C2N1 | 188 to 189 °C
16 | CCOC(=O)c1ncn2c1CN=C(c1ccccc1)c1cc(I)ccc1-2 | 221 to 222 °C
17 | CC1CC=C(c2nnn(C)n2)CN1C (configuration not stated) | 93 to 95 °C
18 | COc1ccc(NC(=O)c2ccc([N+](=O)[O-])cc2)cc1 | 200 °C
19 | Cc1c(F)ccc(C(=O)O)c1F | 168 to 170 °C
20 | CCOC(=O)C(=O)Nc1ccc(Cl)c(C#N)c1 | 182 to 183 °C
21 | CC(C)(c1cc(F)ccc1F)S(=O)(=O)c1ccc(Cl)cc1 | 147 to 148 °C
22 | CC1(C)NC(=O)CSC1=NO | 234 to 236 °C
23 | CS(=O)(=O)c1ccc(-c2[nH]nc(C(=O)CCCO[N+](=O)[O-])c2C2CCCCC2)cc1 | 122 to 124 °C
24 | CC(=O)c1c(-c2ccsc2)sc(-c2ccncc2)c1C | 98 to 100 °C
25 | CCCCC1(O)CCN(CC23CC(c4ccccc42)c2ccccc23)CC1 | 194 to 196 °C
26 | CCS(=O)(=O)Nc1cc(N=c2sc(=S)n3n2CCCC3)c(F)cc1Cl | 146 to 148 °C

Row | Compound | melting point
27 | COC(=O)C(O[Si](C)(C)C(C)(C)C)c1ccccc1O (configuration not stated) | 103 to 104 °C
28 | CC(=O)c1c(-c2ccccc2)nn2ccccc12 | 84 to 85 °C
29 | CSc1cc(C)nc(SC)c1NC(=O)CCCCCCSc1nc2c(C)c(Cl)cc(C(C)C)c2o1 | 129 to 131 °C
30 | CCCCCCC(=O)Nc1c(Sc2cc(C)cc(C)c2)c(C)c[nH]c1=O | 212 to 213 °C
31 | CCCOc1ncc(NS(=O)(=O)CC(=O)O)cc1-c1nc2c(CCC)nn(C)c2c(=O)[nH]1 | 267 to 270 °C
32 | Cc1csc(-c2ccc3c(c2)C=C(C(=O)Nc2ccc(CN(C)C4CCOCC4)cc2)CCS3(=O)=O)c1 | 232 to 234 °C
33 | NS(=O)(=O)c1ccc(CCN2CCC(N3CCc4ccccc43)CC2)cc1 | 207 to 210 °C
34 | Cc1c(-c2ccccc2)n[nH]c1OCCN1CCOCC1 | 100 °C
35 | O=C1c2ccccc2CN1CCCCSc1ccncc1 | 57 to 58 °C
36 | Cn1cc(C[C@H]2NC(=O)[C@@H](CCCN)NC2=O)c2ccccc21 | 148 °C
37 | CCCCCCCCCCCCCCCCc1ccccc1O | 54 to 55 °C
38 | Nc1cc(C(=O)O)cc(S(N)(=O)=O)c1Nc1ccccc1 | 251 °C
39 | O=C(O)CCCOc1ccc(C2=CCCCCC2)cc1 | 87 to 88 °C
40 | O=C(Nc1n[nH]c(=S)s1)NC(Cc1ccccc1)C(=O)NCc1ccccn1 (configuration not stated) | 159 to 161 °C
41 | CCOC(=O)c1cnc2c(C)csc2c1Nc1ccccc1C | 132 to 134 °C
42 | CNC(C)=C(C(=O)OC)C(=O)c1ccccc1 | 75 to 77 °C
43 | CN(CCCCC(=O)N1CCN(c2nc3cc(C(=O)Nc4nc(C(C)(C)C)cs4)ccn3c(=O)c2/C=C/C(=O)O)CC1)CC(=O)O | 169 to 172 °C
44 | O=C(NN1CCN(C(=O)C=Cc2ccccc2)CC1)c1ccc(F)cc1 | 235 to 240 °C
45 | CC(=O)OC1CCC2(C)C(=CCC3C2CCC2(C)C(C(C)CCC(OC(C)=O)C(C)(C)OC(C)=O)CCC32)C1 (configuration not stated) | 121 to 122 °C
46 | COC(=O)C(=O)c1cn2c3c(cccc13)CCC2 | 105 to 108 °C
47 | N=C(N)c1ccc(C(=O)Nc2cc(C(=O)NCCC(=O)O)ccc2OCc2ccccc2)cc1 | > 250 °C
48 | C=CC[C@H](CC(=O)OC(C)(C)C)C(=O)N[C@H](C(=O)N[C@H](COC)c1ccccc1)C(C)C | 155 to 157 °C
49 | CC(C)(C)c1cc(OC(=O)N2CC(O)C2)cc(C(C)(C)C)c1 | 166 to 170 °C
50 | Cc1ccc(C2SC(=S)N(C(=O)NN3CCOCC3)C2C)cc1 (configuration not stated) | 101 to 103 °C
51 | O=C(O)c1ccc(C(=O)N2CCN(C(=O)N3CCOCC3)CC2)cc1 | 203 to 205 °C
52 | O=c1c2cc(F)c(N3CCCC3)cc2n(-c2cccc(F)c2)c(=O)n1O | 239 to 241 °C

Row | Compound | melting point
53 | COc1ncccc1OCC(O)CNC(C)C (configuration not stated) | 50 to 65 °C
54 | Clc1ncnc(Cl)c1Cl | 50 to 52 °C
55 | Cc1cc2c(s1)Nc1ccccc1N=C2N1CCN[C@@H](CO)C1 | 90 °C
56 | CCCS(=O)(=O)c1csc2c(=O)n([C@H](C)[C@](O)(Cn3cncn3)c3ccc(F)cc3F)cnc12 | 115 to 122 °C
57 | CNc1ccc(-c2nc(N3CCOCC3)c3sc(C(C)(C)Nc4ncc(C(=O)NO)cn4)cc3n2)cn1 | 200 to 205 °C
58 | Cc1ccc(N2C(=O)N(CC(=O)Nc3c(C(C)C)cccc3C(C)C)C(=O)C23CCN(C(=O)OC(C)(C)C)CC3)cc1 | 227 to 229 °C
59 | CCOc1c2c(c([N+](=O)[O-])c(OCC)c1OCC)C(=O)OC2 | 82.5 to 84.5 °C
60 | CCCCNc1c(N)c(NCC(C)C)nc(C)c1C(=O)OCC | 34 to 36 °C
61 | Cc1cccc(C)c1NC(=O)Cn1ccnc1 | 160 to 162 °C
62 | CCc1sc2ccc(C)cc2c1S(=O)(=O)Nc1onc(C)c1Br | 176 to 178 °C
63 | O=C1Nc2cc(Cl)ccc2OC1CCCBr (configuration not stated) | 157 to 158 °C
64 | O=C(C=Cc1cccc(F)c1)c1cnc2sc3c(n12)CCCCC3 | 176 to 177 °C
65 | OCC(CO)(OCc1ccccc1)c1ccccc1 | 83 to 86 °C
66 | CCOC(=O)c1cnn(-c2ccccc2Oc2ccc(C)cc2O)c1 | 118 to 119 °C
67 | NC1CCN(c2nc3c(cc2F)c(=O)c(C(=O)O)cn3CCF)C1 (configuration not stated) | 251 to 255 °C
68 | COC(=O)C1=C(C)NC(C)=C(C(=O)OCC2CCCO2)C1c1cccc(Cl)c1Cl (configuration not stated) | 172 to 173 °C
69 | Nc1ccccc1Oc1ccc2c(c1)C(=O)NC2=O | 212 °C
70 | CC(Oc1ncn(-c2ccc(Br)cc2)n1)C(=O)NC1CC1 (configuration not stated) | 170 to 172 °C
71 | CC(C=CC=C(C)C=CC1C(C)=CC(=O)CC1(C)C)=CC=CC=C(C)C=CC=C(C)C=CC1C(C)=CC(=O)CC1(C)C (configuration not stated) | 185 to 187 °C
72 | N#Cc1cc(=O)n(-c2c(Cl)cc(C(F)(F)F)cc2Cl)[nH]1 | 198 to 201 °C
73 | CCCn1nc(C2CC2)c(C(=O)O)c1Cc1ccc(-c2ccccc2S(=O)(=O)NC(=O)c2ccccc2)cc1 | 230 to 232 °C
74 | CC(CCc1nnn[nH]1)Cc1ccc(OCc2ccc3ccccc3n2)cc1 (configuration not stated) | 75 to 77 °C
75 | CC(C)(CC(=O)C(=O)Nc1ccc2c(c1Br)COC2=O)c1ccccc1 | 150 to 152 °C
76 | O=C(O)CCc1oc(N2CCN(c3ccccc3)CC2)nc1-c1ccc(Cl)cc1 | 177 to 178 °C
77 | O=C(NC1CCCCC1)OCc1ccccc1[N+](=O)[O-] | 101 to 102 °C
78 | Oc1ccc2c(c1CNc1ccc(F)cc1F)CCCO2 | 120 to 121 °C

Row | Compound | melting point
79 | CCCCN(c1c([O-])[c+](N(CCCC)C2CC(C)(C)NC(C)(C)C2)[c+]1[O-])C1CC(C)(C)NC(C)(C)C1 | 151 to 152 °C
80 | CCCCOC(=O)c1cccc2c1-c1ccccc1C2=C(C#N)C#N | 99 to 100 °C
81 | CCCCN1C(=O)NC(Cc2ccc(C(=O)OC)cc2)C1=O (configuration not stated) | 144 °C
82 | C[C@]12CC[C@@H]3C4=C(CC[C@H]3[C@@H]1CCC21CC(O)CO1)CC(=O)CC4 (some centres not stated) | 118 to 123 °C
83 | COC(=O)c1ccc(N2CCC(N(C)Cc3ccc(F)cc3)CC2)cc1 | 92 °C
84 | CCOC(=O)NC[C@H]1CN(c2ccc3c(c2)CCCc2cn[nH]c2-3)C(=O)O1 | 122 to 126 °C
85 | CN1CCCCC(c2cccc(O)c2)C1=O (configuration not stated) | 188 to 191 °C
86 | O=C1CS(=O)(=O)CN1c1cccc(C(F)(F)F)c1 | 115 to 117 °C
87 | CCc1c(Oc2c(Cl)cc(C(F)(F)F)cc2Cl)n[nH]c1C | 215 to 218 °C
88 | CCOC(=O)c1c(C(F)(F)F)nc(C(F)(F)Cl)c(C(=O)OC)c1N1CCCC1 | 72 to 73.5 °C
89 | O=C(N[C@H](Cc1ccccc1)[C@H](O)C(=O)O)OCc1ccccc1 | 154 to 155 °C
90 | COc1c(C2CCN(CCCCNC(=O)c3sc(-c4ccc(C#N)cc4)nc3C)CC2)ccc2c1CCCC2 | 160 to 164 °C
91 | CCCCCCCCCCCCCCCCC(CO)C(=O)O (configuration not stated) | 62 to 67 °C
92 | CCOC(=O)c1ccc2c(N)cccc2c1 | 94 to 95 °C
93 | CCCC(=O)c1ccc(=O)[nH]c1C | 167 to 168 °C
94 | Cc1c(C)c2c(c(C)c1NC(=O)NC(C)(C)C)C(c1ccc(C(C)C)cc1)CO2 (configuration not stated) | 201 to 202 °C
95 | COc1cc2c(c3c1c(=O)c1cc4ccccc4cc1n3C)C=CC(C)(C)O2 | 188 °C
96 | CCN(CC)C(=O)COC(=O)C(C)c1ccc2cc(OC)ccc2c1 (configuration not stated) | 89 to 89.5 °C
97 | COc1nc2ccccc2nc1NC(=O)N1CCN(c2ccccc2C(C)C)CC1 | 147 to 149 °C
98 | CC1NS(=O)(=O)c2sccc21 (configuration not stated) | 79 to 81 °C
99 | Cc1cc(C(=O)NCc2ccc(Br)cc2F)c(OCC(=O)O)cc1F | 169 °C
100 | CCOC(=O)c1c(C)nc(C)n1Cc1ccc2oc(-c3ccccc3-c3nnn(C(c4ccccc4)(c4ccccc4)c4ccccc4)n3)c(Br)c2c1 | 98 to 100 °C
101 | CS(=O)(=O)Oc1ccccc1S(N)(=O)=O | 131 to 132 °C
102 | FC(F)(F)C(=C1SCCCS1)c1ccccc1 | 87 to 88 °C
